According to ChEMBL document CHEMBL1121476, “Diaryl amidine derivatives as oncornaviral DNA polymerase inhibitors” (J Med Chem, 1980):
≈ marks a conversion by molar mass, not a printed value.

Target: Gag-Pol polyprotein (Moloney murine leukemia virus isolate Shinnick) (UniProt P03355)
Description: Inhibitory dose against oncornaviral DNA polymerase activity of moloney murine leukemia virus

Row | SMILES | ID50 [µg/mL]
1 | N=C(N)c1ccc(OCCCCCOc2ccc(C(=N)N)cc2)cc1 | 100 (≈ 294 µM)
2 | N=C(N)c1ccc2sc(/C=C/c3cc4cc(C(=N)N)ccc4s3)cc2c1 | 11 (≈ 29.2 µM)
3 | N=C(N)c1ccc(N/N=C/c2cc3cc(C(=N)N)ccc3o2)cc1 | 7.5 (≈ 23.4 µM)
4 | N=C(N)N/N=C/c1ccc2cc(-c3ccc(/C=N/N=C(N)N)cc3)sc2c1 | 2 (≈ 5.28 µM)
5 | N=C(N)c1ccc(-c2cc3cc(C(=N)N)ccc3s2)cc1 | 5 (≈ 17 µM)
6 | N=C(N)c1ccc2cc(/C=C/c3cc4ccc(C(=N)N)cc4o3)oc2c1 | 1.6 (≈ 4.65 µM)
7 | c1cc(-c2cc3ccc(C4=NCCN4)cc3[nH]2)ccc1C1=NCCN1 | 6 (≈ 18.2 µM)
8 | c1cc(Oc2ccc(-c3cc4ccc(C5=NCCN5)cc4[nH]3)cc2)cc(C2=NCCN2)c1 | 3 (≈ 7.12 µM)
9 | CCN(CC)CCOc1ccc2c(c1)C(=O)c1cc(OCCN(CC)CC)ccc1-2 | 75 (≈ 183 µM)
10 | CN(C)/C=N/c1ccc(-c2cc3cc(/N=C/N(C)C)ccc3o2)cc1 | 40 (≈ 120 µM)
11 | N=C(N)c1ccc(-c2ccc(-c3ccc(C(=N)N)cc3)o2)cc1 | 6 (≈ 19.7 µM)
12 | N=C(N)c1ccc2oc(/C=C/c3cc4ccc(C(=N)N)cc4[nH]3)cc2c1 | 1.1 (≈ 3.2 µM)
13 | N=C(N)c1ccc(-c2nnc(-c3ccc(C(=N)N)cc3)o2)cc1 | 28 (≈ 91.4 µM)
14 | N=C(N)c1ccc(Oc2ccc(/C=C/c3cc4ccc(C(=N)N)cc4[nH]3)cc2)cc1 | 1.4 (≈ 3.54 µM)
15 | N=C(N)c1ccc2c(c1)[nH]c1c3cc(C(=N)N)ccc3sc21 | 1.2 (≈ 3.9 µM)
16 | N=C(N)c1ccc(-c2c[nH]c(-c3ccc(C(=N)N)cc3)n2)cc1 | 10 (≈ 32.9 µM)
17 | N=C(N)c1ccc(Oc2ccc(/C=C/c3cc4cc(C(=N)N)ccc4o3)cc2)cc1 | 14 (≈ 35.3 µM)
18 | N=C(N)c1ccc(-c2cc3ccc(C(=N)N)cc3s2)cc1 | 4 (≈ 13.6 µM)
19 | N=C(N)c1ccc2oc(/C=C/c3cc4ccc(C(=N)N)cc4o3)cc2c1 | 1.2 (≈ 3.48 µM)
20 | N=C(N)c1ccc(N/N=N/c2ccc(-c3cc4cc(C(=N)N)ccc4o3)cc2)cc1 | 1.3 (≈ 3.27 µM)
21 | N=C(N)c1ccc(-c2sc3ccc(C(=N)N)cc3c2N)cc1 | 8 (≈ 25.9 µM)
22 | N=C(N)c1ccc(/C=C/C=C/C=C/c2cc3cc(C(=N)N)ccc3o2)cc1 | 1.6 (≈ 4.49 µM)
23 | N=C(N)c1ccc(NC(=O)c2cc3cc(C(=N)N)ccc3o2)cc1 | 7.5 (≈ 23.3 µM)

Row | SMILES | ID50 [µg/mL]
24 | CC[n+]1c(-c2ccccc2)c2cc(N)ccc2c2ccc(N)cc21 | 1.2
25 | N=C(N)c1ccc(-c2ccc(-c3ccc(C(=N)N)cc3)[nH]2)cc1 | 6.5 (≈ 21.4 µM)
26 | N=C(N)Nc1ccc(-c2cc3cc(NC(=N)N)ccc3o2)cc1 | 8 (≈ 25.9 µM)
27 | c1cc(-c2cc3ccc(C4=NCCN4)cc3s2)ccc1C1=NCCN1 | 1.2 (≈ 3.46 µM)
28 | C(=C\c1cc2ccc(C3=NCCN3)cc2[nH]1)/c1ccc(Oc2ccc(C3=NCCN3)cc2)cc1 | 1.6 (≈ 3.58 µM)
29 | N=C(N)Nc1ccc(-c2cc3cc(NC(=N)N)ccc3s2)cc1 | 11 (≈ 33.9 µM)
30 | N=C(N)c1ccc2oc(/C=C/c3cc4cc(C(=N)N)ccc4s3)cc2c1 | 4 (≈ 11.1 µM)
31 | N=C(N)c1ccc(C2Cc3cc(C(=N)N)ccc3S2(=O)=O)cc1 (centres undefined) | 90 (≈ 274 µM)
32 | C(=C\c1cc2cc(C3=NCCN3)ccc2o1)/c1cc2cc(C3=NCCN3)ccc2o1 | 1.1 (≈ 2.77 µM)
33 | N=C(N)c1ccc(/C=C/C=C/c2cc3cc(C(=N)N)ccc3o2)cc1 | 0.9 (≈ 2.72 µM)
34 | N=C(N)c1ccc(/C=C/c2ccc(C(=N)N)cc2)cc1 | 12 (≈ 45.4 µM)
35 | C(=C\c1cc2cc(C3=NCCN3)ccc2o1)/c1ccc(C2=NCCN2)cc1 | 6 (≈ 16.8 µM)
36 | N=C(N)c1ccc(-c2ccc(-c3ccc(C(=N)N)cc3)s2)cc1 | 1.2 (≈ 3.75 µM)
37 | N=C(N)c1cccc(-c2cc3cc(C(=N)N)ccc3s2)c1 | 6 (≈ 20.4 µM)
38 | C(/C=C/c1cc2cc(C3=NCCN3)ccc2o1)=C\c1ccc(C2=NCCN2)cc1 | 4 (≈ 10.5 µM)
39 | N=C(N)c1ccc2[nH]c(/C=C/c3cc4cc(C(=N)N)ccc4o3)cc2c1 | 1.4 (≈ 4.08 µM)
40 | N=C(N)c1ccc2[nH]c(-c3cc4cc(C(=N)N)ccc4o3)cc2c1 | 0.9 (≈ 2.84 µM)
41 | N=C(N)c1ccc2[nH]c(/C=C/c3nc4cc(C(=N)N)ccc4[nH]3)nc2c1 | 100 (≈ 290 µM)
42 | N=C(N)c1ccc2oc(CCc3cc4cc(C(=N)N)ccc4o3)cc2c1 | 12 (≈ 34.6 µM)
43 | N=C(N)c1ccc2oc(-c3ccc(N)cc3)cc2c1 | 270 (≈ 1070 µM)
44 | c1cc(C2=NCCN2)ccc1Oc1ccc(-c2cc3ccc(C4=NCCN4)cc3[nH]2)cc1 | 1.4 (≈ 3.32 µM)
45 | N=C(N)Nc1ccc(-c2cc3ccc(NC(=N)N)cc3s2)cc1 | 6 (≈ 18.5 µM)
46 | N=C(N)c1ccc(CCc2cc3cc(C(=N)N)ccc3o2)cc1 | 120 (≈ 392 µM)

Row | SMILES | ID50 [µg/mL]
47 | c1cc(-c2cc3cc(C4=NCCN4)ccc3s2)ccc1C1=NCCN1 | 2.8 (≈ 8.08 µM)
48 | N=C(N)c1ccc(/C=C/c2cc3cc(C(=N)N)ccc3o2)cc1 | 8 (≈ 26.3 µM)
49 | N=C(N)c1cccc(Oc2ccc(-c3cc4ccc(C(=N)N)cc4[nH]3)cc2)c1 | 6 (≈ 16.2 µM)
50 | C(=C\c1cc2cc(C3=NCCN3)ccc2o1)/c1ccc(Oc2ccc(C3=NCCN3)cc2)cc1 | 9 (≈ 20.1 µM)
51 | N=C(N)c1ccc2oc(C(=O)Nc3ccc(C4=NCCN4)cc3)cc2c1 | 10 (≈ 28.8 µM)
52 | N=C(N)c1cccc(-c2cc3ccc(C(=N)N)cc3[nH]2)c1 | 8 (≈ 28.8 µM)
53 | CC(Cc1cc2cc(C(=N)N)ccc2o1)c1cc2cc(C(=N)N)ccc2o1 (centres undefined) | 15 (≈ 41.6 µM)
54 | N=C(N)c1ccc(-c2[nH]c3cc(C(=N)N)ccc3c2N)cc1 | 12 (≈ 41 µM)
55 | N=C(N)c1cccc(-c2cc3ccc(C(=N)N)cc3s2)c1 | 8 (≈ 27.2 µM)
56 | N=C(N)c1ccc(/C=C/c2cc3ccc(C(=N)N)cc3[nH]2)cc1 | 6 (≈ 19.8 µM)
57 | C/C(=C\c1cc2cc(C(=N)N)ccc2o1)c1ccc(C(=N)N)cc1 | 4 (≈ 12.6 µM)
58 | N=C(N)c1ccc2oc(/C=C/C=C/C=C/c3cc4cc(C(=N)N)ccc4o3)cc2c1 | 1.6 (≈ 4.04 µM)
59 | O=C(Nc1ccc(C2=NCCN2)cc1)c1ccc(C(=O)Nc2ccc(C3=NCCN3)cc2)cc1 | 200 (≈ 442 µM)
60 | N=C(N)c1ccc2oc(/C=C/C=C/c3cc4cc(C(=N)N)ccc4o3)cc2c1 | 3 (≈ 8.1 µM)
61 | N=C(N)c1ccc2oc(-c3c[nH]c(-c4cc5cc(C(=N)N)ccc5o4)n3)cc2c1 | 2 (≈ 5.2 µM)
62 | C(/C=C/c1cc2cc(C3=NCCN3)ccc2o1)=C\c1cc2cc(C3=NCCN3)ccc2o1 | 1 (≈ 2.37 µM)
63 | N=C(N)c1ccc2cc(C(=N)N)[nH]c2c1 | 70 (≈ 348 µM)
64 | N=C(N)c1cccc(-c2cc3cc(C(=N)N)ccc3[nH]2)c1 | 4 (≈ 14.4 µM)
65 | N=C(N)c1ccc(-c2cc3ccc(C(=N)N)cc3[nH]2)cc1 | 5 (≈ 18 µM)
66 | Cc1c(/C=C/c2oc3ccc(C(=N)N)cc3c2C)oc2ccc(C(=N)N)cc12 | 8 (≈ 21.5 µM)
67 | C/C(=C\c1cc2cc(C(=N)N)ccc2o1)c1cc2cc(C(=N)N)ccc2o1 | 14 (≈ 39.1 µM)
68 | N=C(N)c1ccc(Oc2ccc(-c3cc4ccc(C(=N)N)cc4[nH]3)cc2)cc1 | 250 (≈ 677 µM)

System: Nucleic Acid
Assay: Compound was evaluated for 50% inhibitory dose against oncornaviral DNA polymerase activity of moloney murine leukemia virus
Assay type: functional

Row | SMILES | ID50 [µg/mL]
69 | N=C(N)c1ccc(/N=N/Nc2ccc(C(=N)N)cc2)cc1 | 11 (≈ 39.1 µM)
